{
  "source": "patent US11291684B2",
  "about": "“Treatment of glaucoma” (TX MEDIC AB, priority 2017, dated 2022)",
  "key": {"[1]": {"system": "retinal nerve fiber layer (RNFL)", "assay": "OCT analysis of retinal nerve fiber layer in TGF-β-induced glaucoma model", "format": "in vivo, Sprague Dawley rats", "details": "rat TGF-β glaucoma model; day 28", "protocol": "Glaucoma was induced in adult male Sprague Dawley rats by repeat twice weekly intracameral (IC) injections of transforming growth factor-β (TGF-β) to increase intraocular pressure (IOP). Sustained increases in IOP (after two weeks) leads to death of retinal ganglion cells (30-40%). Dextran sulfate (Tikomed AB, Sweden, WO 2016/076780) was administered at 15 mg/kg by daily subcutaneous injection from […] to assess RGC protection compared to controls.\n(§1) Measured End-Points • IOP twice weekly throughout study from day 0 to day 28; • Immunohistochemistry for counting RGC that are immunoreactive for brain-specific homeobox/POU domain protein 3A (Brn3a) at day 28 (RGC survival); • Immunohistochemistry for laminin and fibronectin to evaluate scarring in the trabecular meshwork at day 28 in Groups 1 and 2; • Anterior segment and OCT imaging at day 28 to examine the angle and the thickness of the retinal nerve fiber layer comprising RGC axons; and • Body weight at day 28.\nOptical coherence tomography allows in vivo measuring of retinal thickness with RNFL being a surrogate measure of RGC density. OCT retinal nerve fiber layer analysis was performed at day 28 on all rats while under inhalation anesthesia using a Spectralis HRA3 confocal scanning laser ophthalmoscope (Heidelberg Engineering). […] In-built software was used to segment the images and quantify the RNFL thickness."}, "[2]": {"system": "trabecular meshwork (TM) scarring", "assay": "Trabecular meshwork scarring: laminin and fibronectin immunohistochemistry in the angle", "format": "in vivo, Sprague Dawley rats", "details": "rat TGF-β glaucoma model, day 28, vs saline", "from_the_text": "as §1, with “28. […]” for “28.”\nAfter immunofluorescence staining, sections were viewed on a Zeiss Axioplan 2 epi-fluorescent microscope (Carl Zeiss Ltd) and images captured using the same exposure times for each antibody using a Zeiss AxioCam HRc. IHC was quantified according to the methods previously described. Briefly, the region of interest used for quantitation of TM fibrosis was defined by a quadrant of the same prescribed size for all eyes/treatments within the TM, and ECM deposition was quantified within this defined quadrant of the TM and the % immunofluorescent pixels above a standardized background threshold calculated using ImageJ software (National Institutes of Health, USA). […] Images were assigned randomized numbers to ensure blinding of treatment groups during quantification by the assessor."}},
  "data": [
    {"substance": "dextran sulfate", "values": [
      {"measurement": "RNFL (OCT) compared to saline treatment", "setting": "[1]", "result": "preserved"},
      {"measurement": "levels of immunoreactive laminin in the angle", "setting": "[2]; P<0.001", "result": "significantly reduced"},
      {"measurement": "levels of immunoreactive fibronectin in the angle", "setting": "[2]; P<0.01", "result": "significantly reduced"}
    ]}
  ]
}
